# Data as given in Sander's compilation of Henry's law constants (doi:10.1021/jf001510f).
# Assay: Henry solubility constant Hcp at 310 K (mol/(m3 Pa))
# Conditions: reference: van Ruth et al. (2001)
row,SMILES,Henry solubility constant Hcp at 310 K
1,CCCCCCO [1-hexanol],0.16
2,CCCC(C)O (stereo not given) [2-pentanol],0.23
3,CCCCCCCC(C)O (stereo not given) [2-nonanol],0.069
4,CCCCCCC=O [heptanal],0.011
5,CC(C)CCO [3-methyl-1-butanol],0.32
6,CCCCCCCCC(C)=O [2-decanone],0.015
7,CCCO [1-propanol],0.65
8,CCCOC(C)=O [propyl ethanoate],0.018
9,CSC [dimethyl sulfide],0.0049
10,CCCCOC(C)=O [butyl ethanoate],0.017
11,CCOC(C)=O [ethyl ethanoate],0.03
12,CCCC(=O)OCC [ethyl butanoate],0.016
13,CCCCCCCC=O [octanal],0.0088
14,CCCCCC(C)=O [2-heptanone],0.025
15,CCCCCCC(C)=O [2-octanone],0.018
